The IC50 is the midpoint of a concentration-inhibition curve.

The test concerns the target C-X-C chemokine receptor type 4 (Homo sapiens, UniProt P61073). In words: Antagonist activity at CXCR4. The class given is functional.

Sequence of C-X-C chemokine receptor type 4 (P61073 whole entry): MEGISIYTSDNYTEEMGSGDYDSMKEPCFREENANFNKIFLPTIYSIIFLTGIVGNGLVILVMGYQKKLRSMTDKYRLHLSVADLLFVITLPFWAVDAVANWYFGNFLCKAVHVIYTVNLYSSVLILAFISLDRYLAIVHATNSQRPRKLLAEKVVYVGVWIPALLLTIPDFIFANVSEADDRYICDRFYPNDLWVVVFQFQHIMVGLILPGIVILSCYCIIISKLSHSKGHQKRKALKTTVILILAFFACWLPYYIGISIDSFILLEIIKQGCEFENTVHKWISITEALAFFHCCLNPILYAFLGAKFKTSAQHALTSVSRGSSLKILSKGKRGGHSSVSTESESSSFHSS

Turning to `NC(N)=NCCC[C@@H]1NC(=O)[C@H](CCCN=C(N)N)NC(=O)[C@@H](Cc2ccccc2)NC(=O)CNC(=O)[C@H](Cc2ccc3ccccc3c2)NC1=O`, inhibition was half-maximal at 51 nM (IC50).
